Test results as given in US20060069132A1, “Azolecarboxamide herbicides” (priority 2004, published 2006).

Legend:
morningglory = test: Test A pre-/postemergence herbicide test; type: in vivo, Ipomoea spp.
Outline: (§1)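 Both application timings were run together: directed soil spray over freshly planted seeds in sandy loam, and runoff spray onto 2–10 cm seedlings. Evaluation after ~10 days in greenhouse used a 0–100 visual scale versus untreated controls.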

bermudagrass = test: Test C pre-/postemergence herbicide test; type: in vivo, Cynodon dactylon; settings: for Plant response rating, Bermudagrass: preemergence; for Bermudagrass plant response rating: Preemergence, 500 g ai/ha
Outline: (§2)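 Emerged plants at the 1- to 4-leaf stage (2–18 cm), or freshly planted seeds, received test chemicals in a non-phytotoxic solvent mixture with surfactant. Response was visually scored against controls after 12 to 14 days in the greenhouse, on a 0 (no effect) to 100 (complete control) scale.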

johnsongrass = test: Test C pre-/postemergence herbicide test; type: in vivo, Sorghum halepense; settings: for Plant response rating, Johnsongrass: preemergence; for Johnsongrass plant response rating: Preemergence, 500 g ai/ha, scale 0 to 100, 0 no effect, 100 complete control
Outline: as §2

velvetleaf = test: Test A pre-/postemergence herbicide test; type: in vivo, Abutilon theophrasti
Outline: as §1

cocklebur = test: Test C pre-/postemergence herbicide test; type: in vivo, Xanthium strumarium; settings: for Plant response rating, Cocklebur: preemergence; for Cocklebur plant response rating: Preemergence, 500 g ai/ha, scale 0 to 100, 0 no effect, 100 complete control
Outline: as §2

goosegrass = test: Test C pre-/postemergence herbicide test; type: in vivo, Eleusine indica; settings: for Plant response rating, Goosegrass: preemergence; for Goosegrass plant response rating: Preemergence, 500 g ai/ha, scale 0 to 100, 0 no effect, 100 complete control
Outline: as §2

soybean = test: Test C pre-/postemergence herbicide test; type: in vivo, Glycine max; settings: for Plant response rating, Soybean: preemergence; for Soybean plant response rating: Preemergence, 500 g ai/ha, scale 0 to 100, 0 no effect, 100 complete control
Outline: as §2

pigweed = test: Test C pre-/postemergence herbicide test; type: in vivo, Amaranthus retroflexus; settings: for Plant response rating, Pigweed: preemergence; for Pigweed plant response rating: Preemergence, 500 g ai/ha, scale 0 to 100, 0 no effect, 100 complete control
Outline: as §2

Surinam grass = test: Test C pre-/postemergence herbicide test; type: in vivo, Urochloa decumbens; settings: for Plant response rating, Surinam Grass: preemergence; for Surinam Grass plant response rating: Preemergence, 500 g ai/ha, scale 0 to 100, 0 no effect, 100 complete control
Outline: as §2

[1] = Postemergence, 500 g ai/ha, 0 to 100 scale, 0 no effect, 100 complete control
[2] = Postemergence, 2000 g ai/ha, 0 to 100 scale, 0 no effect, 100 complete control
[3] = Preemergence, 2000 g ai/ha, visual rating, 0 to 100 scale (0 no effect, 100 complete control)
[4] = preemergence, 500 g ai/ha, visual injury, 0 to 100 scale (0 no effect, 100 complete control)
[5] = 62 g ai/ha, scale 0 to 100, 0 no effect, 100 complete control
[6] = 125 g ai/ha, scale 0 (no effect) to 100 (complete control), visual, 12 to 14 days
[7] = scale 0 to 100, 0 no effect, 100 complete control

Structure (SMILES) | Morningglory plant response rating (morningglory; [1]) | Plant response rating, Morningglory (morningglory; [2]) | Morningglory plant response rating (morningglory; [3]) | Morningglory plant response rating (morningglory; [4]) | Plant response rating, Bermudagrass (bermudagrass; [5]) | Plant response rating, Bermudagrass (bermudagrass; [6]) | Plant response rating, Bermudagrass (bermudagrass; 250 g ai/ha, scale 0-100) | Bermudagrass plant response rating (bermudagrass; [7]) | Plant response rating, Johnsongrass (johnsongrass; 62 g ai/ha, scale 0 to 100) | Plant response rating, Johnsongrass (johnsongrass; [6]) | Plant response rating, Johnsongrass (johnsongrass; 250 g ai/ha, scale 0-100) | Johnsongrass plant response rating (johnsongrass) | Velvetleaf plant response rating (velvetleaf; [1]) | Plant response rating, Velvetleaf (velvetleaf; [2]) | Velvetleaf plant response rating (velvetleaf; [3]) | Velvetleaf plant response rating (velvetleaf; [4]) | Plant response rating, Cocklebur (cocklebur; 62 g ai/ha, scale 0 to 100) | Plant response rating, Cocklebur (cocklebur; [6]) | Plant response rating, Cocklebur (cocklebur; 250 g ai/ha, scale 0-100) | Cocklebur plant response rating (cocklebur) | other results
CCN(CC)C(=O)c1cccc(NC(=O)c2sc(C(C)(C)C)nc2C)c1 [Compound 199] | 45 | 70 | 55 | 15 | 55 | 85 | 100 | 100 | 0 | 30 | 60 | 90 | 30 | 35 | 90 | 35 | 0 | 0 | 0 | 0 | Plant response rating, Goosegrass (goosegrass; 62 g ai/ha, scale 0 to 100): 5; Plant response rating, Goosegrass (goosegrass; [6]): 70; Plant response rating, Goosegrass (goosegrass; 250 g ai/ha, scale 0-100): 90; Goosegrass plant response rating (goosegrass): 95; Plant response rating, Soybean (soybean; 62 g ai/ha, scale 0 to 100): 0; Plant response rating, Soybean (soybean; [6]): 0; Plant response rating, Soybean (soybean; 250 g ai/ha, scale 0-100): 5; Soybean plant response rating (soybean): 30; Plant response rating, Pigweed (pigweed; 62 g ai/ha, scale 0 to 100): 100; Plant response rating, Pigweed (pigweed; [6]): 100; Plant response rating, Pigweed (pigweed; 250 g ai/ha, scale 0-100): 100; Pigweed plant response rating (pigweed): 100; Plant response rating, Surinam Grass (Surinam grass; 62 g ai/ha, scale 0 to 100): 0; Plant response rating, Surinam Grass (Surinam grass; [6]): 0; Plant response rating, Surinam Grass (Surinam grass; 250 g ai/ha, scale 0-100): 30; Surinam Grass plant response rating (Surinam grass): 75
CCc1nc(C(C)(C)C)sc1C(=O)Nc1cccc(C(=O)N(CC)CC)c1 [Compound 205] | 25 | 20 | 45 | 30 | 90 | 100 | 100 | 100 | 0 | 10 | 60 | 85 | 20 | 30 | 100 | 70 | 0 | 0 | 0 | 0 | Plant response rating, Goosegrass (goosegrass; 62 g ai/ha, scale 0 to 100): 50; Plant response rating, Goosegrass (goosegrass; [6]): 70; Plant response rating, Goosegrass (goosegrass; 250 g ai/ha, scale 0-100): 80; Goosegrass plant response rating (goosegrass): 95; Plant response rating, Soybean (soybean; [6]): 20; Plant response rating, Soybean (soybean; 250 g ai/ha, scale 0-100): 20; Soybean plant response rating (soybean): 60; Plant response rating, Pigweed (pigweed; 62 g ai/ha, scale 0 to 100): 90; Plant response rating, Pigweed (pigweed; [6]): 95; Plant response rating, Pigweed (pigweed; 250 g ai/ha, scale 0-100): 95; Pigweed plant response rating (pigweed): 100; Plant response rating, Surinam Grass (Surinam grass; 62 g ai/ha, scale 0 to 100): 0; Plant response rating, Surinam Grass (Surinam grass; [6]): 20; Plant response rating, Surinam Grass (Surinam grass; 250 g ai/ha, scale 0-100): 50; Surinam Grass plant response rating (Surinam grass): 85
